Experimental data reported in patent publication US7612064B2, “Sulfopyrroles” (Takeda Pharmaceutical Company Limited, priority 2003, dated 2009).
Values belong to the compound of their own block, whether it stands above or below them.

Experiments:
Jurkat = test: MTS proliferation assay; format: cell-based, human; conditions: 72 h
Outline: (§1)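 Absorbance at 492 nm after a 3 h MTS incubation reports viable cell number. Before that, compounds at 10 μM, 3 μM, 1 μM and 0.3 μM final stay on the cells for 72 h at culture conditions.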

HeLa = test: MTS proliferation assay; format: cell-based, human; conditions: 72 h
Outline: as §1

[1] = Hoechst 33342 nuclear staining; format: cell-based; conditions: for Hoechst 33342 nuclear staining score, HeLa: HeLa cells; for Hoechst 33342 nuclear staining score, Jurkat: Jurkat cells; for Hoechst 33342 nuclear staining score, H460: H460 cells; for Hoechst 33342 nuclear staining score, Jily: Jily cells; for Hoechst 33342 nuclear staining score, MRC5: MRC5 cells; for Hoechst 33342 nuclear staining score, PBLs: key: 0: no activity; 1: weak activity comprising less than 50% of the cells; 2: strong activity comprising more than 50% of the cells;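 for all read-outs here: apoptotic nuclei scored 0 none 1 weak under 50% of cells 2 strong over 50% of cells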
Outline: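 Cells were plated in 96 well tissue culture plates in 80 μl complete medium, with 3-5*10^3 cells per well for adherent lines and 8-10*10^3 for suspension lines. Adherent cells spread for 24 h before treatment, while suspension cells were treated right after seeding. Compounds were added in 20 μl complete medium containing max 5% DMSO.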

MRC5 = test: MTS proliferation assay; format: cell-based; conditions: MRC5, 72 h
Outline: as §1

Jily = test: MTS proliferation assay; format: cell-based; conditions: 72 h
Outline: as §1

IC50 (Jurkat): < 1 µM | IC50 (HeLa): < 1 µM
SMILES: COc1cc(-c2cc(-c3cncc(CNC(C)=O)c3)cn2S(=O)(=O)c2ccc(C)cc2)cc(OC)c1OC [Example 60]
Hoechst 33342 nuclear staining score, H460 ([1]; conc 0.1): 0 | Hoechst 33342 nuclear staining score, H460 ([1]; conc 0.3): 0 | Hoechst 33342 nuclear staining score, H460 ([1]; conc 1): 2 (strong activity comprising more than 50% of the cells) | Hoechst 33342 nuclear staining score, H460 ([1]; conc 3): 2 (strong activity comprising more than 50% of the cells) | Hoechst 33342 nuclear staining score, HeLa ([1]; conc 0.1): 0 | Hoechst 33342 nuclear staining score, HeLa ([1]; conc 0.3): 0 | Hoechst 33342 nuclear staining score, HeLa ([1]; conc 1): 1 (weak activity comprising less than 50% of the cells) | Hoechst 33342 nuclear staining score, HeLa ([1]; conc 3): 2 (strong activity comprising more than 50% of the cells) | Hoechst 33342 nuclear staining score, Jily ([1]; conc 0.1): 0 | Hoechst 33342 nuclear staining score, Jily ([1]; conc 0.3): 0 | Hoechst 33342 nuclear staining score, Jily ([1]; conc 1): 2 (strong activity comprising more than 50% of the cells) | Hoechst 33342 nuclear staining score, Jily ([1]; conc 3): 2 (strong activity comprising more than 50% of the cells) | Hoechst 33342 nuclear staining score, Jurkat ([1]; conc 0.1): 0 | Hoechst 33342 nuclear staining score, Jurkat ([1]; conc 0.3): 2 (strong activity comprising more than 50% of the cells) | Hoechst 33342 nuclear staining score, Jurkat ([1]; conc 1): 2 (strong activity comprising more than 50% of the cells) | Hoechst 33342 nuclear staining score, Jurkat ([1]; conc 3): 2 (strong activity comprising more than 50% of the cells) | Hoechst 33342 nuclear staining score, MRC5 ([1]; conc 0.1): 0 | Hoechst 33342 nuclear staining score, MRC5 ([1]; conc 0.3): 0 | Hoechst 33342 nuclear staining score, MRC5 ([1]; conc 1): 0 | Hoechst 33342 nuclear staining score, MRC5 ([1]; conc 3): 2 (strong activity comprising more than 50% of the cells) | Hoechst 33342 nuclear staining score, PBLs ([1]; conc 0.1): 0 | Hoechst 33342 nuclear staining score, PBLs ([1]; conc 0.3): 0 | Hoechst 33342 nuclear staining score, PBLs ([1]; conc 1): 0 | Hoechst 33342 nuclear staining score, PBLs ([1]; conc 3): 0 | IC50 (MRC5): < 1 µM | IC50 (Jily): < 1 µM

IC50 (Jurkat): < 1 µM | IC50 (HeLa): < 1 µM
SMILES: COc1cc(-c2cc(-c3cncc(C(=O)NC(C)CO)c3)cn2S(=O)(=O)c2ccc(C)cc2)cc(OC)c1OC.Cl (centres unmarked) [Example 63]
Hoechst 33342 nuclear staining score, H460 ([1]; conc 0.1): 0 | Hoechst 33342 nuclear staining score, H460 ([1]; conc 0.3): 0 | Hoechst 33342 nuclear staining score, H460 ([1]; conc 1): 0 | Hoechst 33342 nuclear staining score, H460 ([1]; conc 3): 0 | Hoechst 33342 nuclear staining score, HeLa ([1]; conc 0.1): 0 | Hoechst 33342 nuclear staining score, HeLa ([1]; conc 0.3): 0 | Hoechst 33342 nuclear staining score, HeLa ([1]; conc 1): 0 | Hoechst 33342 nuclear staining score, HeLa ([1]; conc 3): 2 (strong activity comprising more than 50% of the cells) | Hoechst 33342 nuclear staining score, Jily ([1]; conc 0.1): 0 | Hoechst 33342 nuclear staining score, Jily ([1]; conc 0.3): 0 | Hoechst 33342 nuclear staining score, Jily ([1]; conc 1): 0 | Hoechst 33342 nuclear staining score, Jily ([1]; conc 3): 0 | Hoechst 33342 nuclear staining score, Jurkat ([1]; conc 0.1): 0 | Hoechst 33342 nuclear staining score, Jurkat ([1]; conc 0.3): 0 | Hoechst 33342 nuclear staining score, Jurkat ([1]; conc 1): 2 (strong activity comprising more than 50% of the cells) | Hoechst 33342 nuclear staining score, Jurkat ([1]; conc 3): 2 (strong activity comprising more than 50% of the cells) | Hoechst 33342 nuclear staining score, MRC5 ([1]; conc 0.1): 0 | Hoechst 33342 nuclear staining score, MRC5 ([1]; conc 0.3): 0 | Hoechst 33342 nuclear staining score, MRC5 ([1]; conc 1): 0 | Hoechst 33342 nuclear staining score, MRC5 ([1]; conc 3): 0 | Hoechst 33342 nuclear staining score, PBLs ([1]; conc 0.1): 0 | Hoechst 33342 nuclear staining score, PBLs ([1]; conc 0.3): 0 | Hoechst 33342 nuclear staining score, PBLs ([1]; conc 1): 0 | Hoechst 33342 nuclear staining score, PBLs ([1]; conc 3): 0 | IC50 (MRC5): < 1 µM | IC50 (Jily): < 1 µM

IC50 (Jurkat): < 1 µM | IC50 (HeLa): < 1 µM
SMILES: COc1cc(-c2cc(-c3cncc(C(=O)NCCN4CCOCC4)c3)cn2S(=O)(=O)c2ccc(C)cc2)cc(OC)c1OC.Cl [Example 64]
Hoechst 33342 nuclear staining score, H460 ([1]; conc 0.1): 0 | Hoechst 33342 nuclear staining score, H460 ([1]; conc 0.3): 0 | Hoechst 33342 nuclear staining score, H460 ([1]; conc 1): 2 (strong activity comprising more than 50% of the cells) | Hoechst 33342 nuclear staining score, H460 ([1]; conc 3): 2 (strong activity comprising more than 50% of the cells) | Hoechst 33342 nuclear staining score, HeLa ([1]; conc 0.1): 0 | Hoechst 33342 nuclear staining score, HeLa ([1]; conc 0.3): 0 | Hoechst 33342 nuclear staining score, HeLa ([1]; conc 1): 2 (strong activity comprising more than 50% of the cells) | Hoechst 33342 nuclear staining score, HeLa ([1]; conc 3): 2 (strong activity comprising more than 50% of the cells) | Hoechst 33342 nuclear staining score, Jily ([1]; conc 0.1): 0 | Hoechst 33342 nuclear staining score, Jily ([1]; conc 0.3): 0 | Hoechst 33342 nuclear staining score, Jily ([1]; conc 1): 2 (strong activity comprising more than 50% of the cells) | Hoechst 33342 nuclear staining score, Jily ([1]; conc 3): 2 (strong activity comprising more than 50% of the cells) | Hoechst 33342 nuclear staining score, Jurkat ([1]; conc 0.1): 0 | Hoechst 33342 nuclear staining score, Jurkat ([1]; conc 0.3): 0 | Hoechst 33342 nuclear staining score, Jurkat ([1]; conc 1): 2 (strong activity comprising more than 50% of the cells) | Hoechst 33342 nuclear staining score, Jurkat ([1]; conc 3): 2 (strong activity comprising more than 50% of the cells) | Hoechst 33342 nuclear staining score, MRC5 ([1]; conc 0.1): 0 | Hoechst 33342 nuclear staining score, MRC5 ([1]; conc 0.3): 0 | Hoechst 33342 nuclear staining score, MRC5 ([1]; conc 1): 2 (strong activity comprising more than 50% of the cells) | Hoechst 33342 nuclear staining score, MRC5 ([1]; conc 3): 2 (strong activity comprising more than 50% of the cells) | Hoechst 33342 nuclear staining score, PBLs ([1]; conc 0.1): 0 | Hoechst 33342 nuclear staining score, PBLs ([1]; conc 0.3): 0 | Hoechst 33342 nuclear staining score, PBLs ([1]; conc 1): 0 | Hoechst 33342 nuclear staining score, PBLs ([1]; conc 3): 0 | IC50 (MRC5): < 1 µM | IC50 (Jily): < 1 µM

Continued, compound first:

SMILES: COc1cc(-c2cc(-c3ccc(S(N)(=O)=O)cc3)cn2S(=O)(=O)c2ccc(C)cc2)cc(OC)c1OC [Example 57]
IC50 (Jurkat): < 0.2 µM | IC50 (HeLa): < 1 µM | Hoechst 33342 nuclear staining score, HeLa ([1]; conc 0.1): 0 | Hoechst 33342 nuclear staining score, HeLa ([1]; conc 0.3): 0 | Hoechst 33342 nuclear staining score, HeLa ([1]; conc 1): 0 | Hoechst 33342 nuclear staining score, HeLa ([1]; conc 3): 2 (strong activity comprising more than 50% of the cells) | Hoechst 33342 nuclear staining score, Jurkat ([1]; conc 0.1): 0 | Hoechst 33342 nuclear staining score, Jurkat ([1]; conc 0.3): 0 | Hoechst 33342 nuclear staining score, Jurkat ([1]; conc 1): 1 (weak activity comprising less than 50% of the cells) | Hoechst 33342 nuclear staining score, Jurkat ([1]; conc 3): 2 (strong activity comprising more than 50% of the cells) | Hoechst 33342 nuclear staining score, PBLs ([1]; conc 0.1): 0 | Hoechst 33342 nuclear staining score, PBLs ([1]; conc 0.3): 0 | Hoechst 33342 nuclear staining score, PBLs ([1]; conc 1): 0 | Hoechst 33342 nuclear staining score, PBLs ([1]; conc 3): 0 | IC50 (MRC5): < 1 µM | IC50 (Jily): < 1 µM

SMILES: COc1cc(-c2cc(-c3cncc(CN)c3)cn2S(=O)(=O)c2ccc(C)cc2)cc(OC)c1OC [Example 58]
IC50 (Jurkat): < 1 µM | IC50 (HeLa): < 1 µM | Hoechst 33342 nuclear staining score, H460 ([1]; conc 0.1): 0 | Hoechst 33342 nuclear staining score, H460 ([1]; conc 0.3): 0 | Hoechst 33342 nuclear staining score, H460 ([1]; conc 1): 2 (strong activity comprising more than 50% of the cells) | Hoechst 33342 nuclear staining score, H460 ([1]; conc 3): 2 (strong activity comprising more than 50% of the cells) | Hoechst 33342 nuclear staining score, HeLa ([1]; conc 0.1): 0 | Hoechst 33342 nuclear staining score, HeLa ([1]; conc 0.3): 0 | Hoechst 33342 nuclear staining score, HeLa ([1]; conc 1): 2 (strong activity comprising more than 50% of the cells) | Hoechst 33342 nuclear staining score, HeLa ([1]; conc 3): 2 (strong activity comprising more than 50% of the cells) | Hoechst 33342 nuclear staining score, Jily ([1]; conc 0.1): 0 | Hoechst 33342 nuclear staining score, Jily ([1]; conc 0.3): 0 | Hoechst 33342 nuclear staining score, Jily ([1]; conc 1): 2 (strong activity comprising more than 50% of the cells) | Hoechst 33342 nuclear staining score, Jily ([1]; conc 3): 2 (strong activity comprising more than 50% of the cells) | Hoechst 33342 nuclear staining score, Jurkat ([1]; conc 0.1): 0 | Hoechst 33342 nuclear staining score, Jurkat ([1]; conc 0.3): 2 (strong activity comprising more than 50% of the cells) | Hoechst 33342 nuclear staining score, Jurkat ([1]; conc 1): 2 (strong activity comprising more than 50% of the cells) | Hoechst 33342 nuclear staining score, Jurkat ([1]; conc 3): 2 (strong activity comprising more than 50% of the cells) | Hoechst 33342 nuclear staining score, MRC5 ([1]; conc 0.1): 0 | Hoechst 33342 nuclear staining score, MRC5 ([1]; conc 0.3): 0 | Hoechst 33342 nuclear staining score, MRC5 ([1]; conc 1): 1 (weak activity comprising less than 50% of the cells) | Hoechst 33342 nuclear staining score, MRC5 ([1]; conc 3): 2 (strong activity comprising more than 50% of the cells) | Hoechst 33342 nuclear staining score, PBLs ([1]; conc 0.1): 0 | Hoechst 33342 nuclear staining score, PBLs ([1]; conc 0.3): 0 | Hoechst 33342 nuclear staining score, PBLs ([1]; conc 1): 0 | Hoechst 33342 nuclear staining score, PBLs ([1]; conc 3): 0 | IC50 (MRC5): > 1 µM | IC50 (Jily): < 1 µM

SMILES: CCCCOc1ccc(S(=O)(=O)n2cc(-c3cccnc3)cc2-c2cc(OC)c(OC)c(OC)c2)cc1 [Example 78]
IC50 (Jurkat): > 1 µM | IC50 (HeLa): > 1 µM | Hoechst 33342 nuclear staining score, H460 ([1]; conc 0.1): 0 | Hoechst 33342 nuclear staining score, H460 ([1]; conc 0.3): 0 | Hoechst 33342 nuclear staining score, H460 ([1]; conc 1): 0 | Hoechst 33342 nuclear staining score, H460 ([1]; conc 3): 0 | Hoechst 33342 nuclear staining score, HeLa ([1]; conc 0.1): 0 | Hoechst 33342 nuclear staining score, HeLa ([1]; conc 0.3): 0 | Hoechst 33342 nuclear staining score, HeLa ([1]; conc 1): 0 | Hoechst 33342 nuclear staining score, HeLa ([1]; conc 3): 0 | Hoechst 33342 nuclear staining score, Jily ([1]; conc 0.1): 0 | Hoechst 33342 nuclear staining score, Jily ([1]; conc 0.3): 0 | Hoechst 33342 nuclear staining score, Jily ([1]; conc 1): 0 | Hoechst 33342 nuclear staining score, Jily ([1]; conc 3): 0 | Hoechst 33342 nuclear staining score, Jurkat ([1]; conc 0.1): 0 | Hoechst 33342 nuclear staining score, Jurkat ([1]; conc 0.3): 0 | Hoechst 33342 nuclear staining score, Jurkat ([1]; conc 1): 0 | Hoechst 33342 nuclear staining score, Jurkat ([1]; conc 3): 0 | Hoechst 33342 nuclear staining score, MRC5 ([1]; conc 0.1): 0 | Hoechst 33342 nuclear staining score, MRC5 ([1]; conc 0.3): 0 | Hoechst 33342 nuclear staining score, MRC5 ([1]; conc 1): 0 | Hoechst 33342 nuclear staining score, MRC5 ([1]; conc 3): 0 | Hoechst 33342 nuclear staining score, PBLs ([1]; conc 0.1): 0 | Hoechst 33342 nuclear staining score, PBLs ([1]; conc 0.3): 0 | Hoechst 33342 nuclear staining score, PBLs ([1]; conc 1): 0 | Hoechst 33342 nuclear staining score, PBLs ([1]; conc 3): 0 | IC50 (MRC5): > 1 µM
